Counter-ions that a name gives are not always drawn. Some results are limits rather than exact numbers.

For the assay, the target named is T1, human vasopressin V1b receptor (Homo sapiens, UniProt P47901).
T1 construct: expressed in transfected cells; host or cells: CHO-K1 (cell line hV1b-3H2_CHO), membrane preparation
T1 sequence (P47901 1-424): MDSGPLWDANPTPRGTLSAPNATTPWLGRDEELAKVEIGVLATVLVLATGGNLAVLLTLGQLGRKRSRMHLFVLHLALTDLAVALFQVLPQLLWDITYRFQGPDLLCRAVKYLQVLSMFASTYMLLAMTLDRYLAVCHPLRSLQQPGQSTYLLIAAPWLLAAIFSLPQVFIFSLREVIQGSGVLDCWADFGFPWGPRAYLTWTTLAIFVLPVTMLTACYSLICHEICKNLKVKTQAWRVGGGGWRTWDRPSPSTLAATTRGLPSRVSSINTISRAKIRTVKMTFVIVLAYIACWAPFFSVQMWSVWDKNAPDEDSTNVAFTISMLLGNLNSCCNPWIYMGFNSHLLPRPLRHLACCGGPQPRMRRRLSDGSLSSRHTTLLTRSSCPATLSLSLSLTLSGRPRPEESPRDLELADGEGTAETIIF
Briefly: Vasopressin V1b receptor binding assay. As to conditions: membranes from CHO-K1 cells with stably expressed human V1b receptors, displacement of 1.5 nM 3H-AVP. Here is the method:
Vasopressin V1b Receptor Binding Assay:
The test substances were dissolved in a concentration of 10^−2 M in DMSO (dimethyl sulfoxide) and further diluted to 5×10^−4 M to 5×10^−9 M in DMSO. This series of DMSO predilutions was diluted 1:10 with assay buffer. The substance concentration was again diluted 1:5 in the assay mixture (2% DMSO in the mixture).
The membrane pellet was again homogenized and centrifuged as described and then taken up in 50 mM Tris-HCl, pH 7.4, homogenized and stored in aliquots frozen in liquid nitrogen at −190° C.
The incubation buffer was: 50 mM Tris, 10 mM MgCl2, 0.1% BSA, pH 7.4.
The nonspecific binding was determined with 1 uM AVP (Bachem # H1780). All determinations were carried out as triplicate determinations. After incubation (60 minutes at room temperature), the free radioligand was removed by vacuum filtration (Skatron cell harvester 7000) through Whatman GF/B glass fiber filter mats, and the filters were transferred into scintillation vials. The liquid scintillation measurement took place in a Tricarb model 2000 or 2200CA instrument (Packard). Conversion of the measured cpm into dpm was carried out with the aid of a standard quench series.
The binding parameters were calculated by nonlinear regression in SAS.
The compound `COc1ccc(S(=O)(=O)N2C(=O)C(c3ccc(CN4CCNCC4)cc3OC)(N3CCC[C@H]3C(=O)N(C)C)c3cc(Cl)ccc32)cc1` (stereo partly drawn) [Example 79, (S)-1-[5-Chloro-1-(4-methoxybenzenesulfonyl)-3-(2-methoxy-4-piperazin-1-yl-methylphenyl)-2-oxo-2,3-dihydro-1H-indol-3-yl]pyrrolidine-2-dimethylcarboxamide, trifluoroacetic acid salt] gave a Ki of under 1 nM. `COc1cc(CN2CCN(C)CC2)ccc1C1(N2CCC[C@H]2C(=O)N(C)C)C(=O)N(S(=O)(=O)c2ccc(C#N)cc2)c2ccc(Cl)cc21` (stereo partly drawn) [Example 80, (S)-1-{5-Chloro-1-(4-cyanobenzenesulfonyl)-3-[2-methoxy-4-(4-methylpiperazin-1-ylmethyl)phenyl]-2-oxo-2,3-dihydro-1H-indol-3-yl}pyrrolidine-2-carboxylic acid dimethylamide, trifluoroacetic acid salt] had a Ki of under 1 nM. In the case of `COc1cc(CN2CCOCC2)ccc1C1(N2CCC[C@H]2C(=O)N(C)C)C(=O)N(S(=O)(=O)c2ccc(C#N)cc2)c2ccc(Cl)cc21` (stereo partly drawn) [Example 81, (S)-1-[5-Chloro-1-(4-cyanobenzenesulfonyl)-3-(2-methoxy-4-morpholin-4-ylmethyl-phenyl)-2-oxo-2,3-dihydro-1H-indol-3-yl]pyrrolidine-2-dimethylcarboxamide, trifluoroacetic acid salt], the Ki was in the range of 1 to 10 nM. Compound `COc1cc(CN2CCNCC2)ccc1C1(N2CCC[C@H]2C(=O)N(C)C)C(=O)N(S(=O)(=O)c2ccc(C#N)cc2)c2ccc(Cl)cc21` (stereo partly drawn) [Example 82, (S)-1-[5-Chloro-1-(4-cyanobenzenesulfonyl)-3-(2-methoxy-4-piperazin-1-ylmethyl-phenyl)-2-oxo-2,3-dihydro-1H-indol-3-yl]pyrrolidine-2-dimethylcarboxamide, trifluoroacetic acid salt] yielded a Ki of under 1 nM. Turning to `COc1ccc(S(=O)(=O)N2C(=O)C(c3ccc(CN4CCCCC4)cc3OC)(N3CCC[C@H]3C(=O)N(C)C)c3cc(Cl)ccc32)cc1` (stereo partly drawn) [Example 83, (S)-1-[5-Chloro-1-(4-methoxybenzenesulfonyl)-3-(2-methoxy-4-piperidin-1-ylmethyl-phenyl)-2-oxo-2,3-dihydro-1H-indol-3-yl]pyrrolidine-2-dimethylcarboxamide, trifluoroacetic acid salt], the Ki is under 1 nM. Turning to `CCN(C)Cc1ccc(C2(N3CCC[C@H]3C(=O)N(C)C)C(=O)N(S(=O)(=O)c3ccc(OC)cc3)c3ccc(Cl)cc32)c(OC)c1` (stereo partly drawn) [Example 84, (S)-1-[5-Chloro-3-{4-[(ethylmethylamino)methyl]-2-methoxyphenyl}-1-(4-methoxy-benzenesulfonyl)-2-oxo-2,3-dihydro-1H-indol-3-yl]pyrrolidine-2-dimethylcarboxamide, trifluoroacetic acid salt], the Ki was under 1 nM. Next, `CCCNCc1ccc(C2(N3CCC[C@H]3C(=O)N(C)C)C(=O)N(S(=O)(=O)c3ccc(OC)cc3)c3ccc(Cl)cc32)c(OC)c1` (stereo partly drawn) [Example 85, (S)-1-[5-Chloro-1-(4-methoxybenzenesulfonyl)-3-(2-methoxy-4-propylaminomethyl-phenyl)-2-oxo-2,3-dihydro-1H-indol-3-yl]pyrrolidine-2-dimethylcarboxamide, trifluoroacetic acid salt]: under 1 nM. `CCN(CC)Cc1ccc(C2(N3CCC[C@H]3C(=O)N(C)C)C(=O)N(S(=O)(=O)c3ccc(OC)cc3)c3ccc(Cl)cc32)c(OC)c1` (stereo partly drawn) [Example 86, (S)-1-[5-Chloro-3-(4-diethylaminomethyl-2-methoxyphenyl)-1-(4-methoxybenzene-sulfonyl)-2-oxo-2,3-dihydro-1H-indol-3-yl]pyrrolidine-2-dimethylcarboxamide, trifluoroacetic acid salt] gave an inhibition constant (Ki) of under 1 nM. With `COc1ccc(S(=O)(=O)N2C(=O)C(c3ccc(CN4CCC4)cc3OC)(N3CCC[C@H]3C(=O)N(C)C)c3cc(Cl)ccc32)cc1` (stereo partly drawn) [Example 87, (S)-1-[3-(4-Azetidin-1-ylmethyl-2-methoxyphenyl)-5-chloro-1-(4-methoxybenzene-sulfonyl)-2-oxo-2,3-dihydro-1H-indol-3-yl]pyrrolidine-2-dimethylcarboxamide, trifluoroacetic acid salt], the Ki was under 1 nM.

The compound `COc1ccc(S(=O)(=O)N2C(=O)C(c3ccc(CN(C)C(C)C)cc3OC)(N3CCC[C@H]3C(=O)N(C)C)c3cc(Cl)ccc32)cc1` (stereo partly drawn) [Example 88, (S)-1-[5-Chloro-3-{4-[(isopropylmethylamino)methyl]-2-methoxyphenyl}-1-(4-methoxy-benzenesulfonyl)-2-oxo-2,3-dihydro-1H-indol-3-yl]pyrrolidine-2-dimethylcarboxamide, trifluoroacetic acid salt] registered a Ki of under 1 nM. For the compound `COCCN(C)Cc1ccc(C2(N3CCC[C@H]3C(=O)N(C)C)C(=O)N(S(=O)(=O)c3ccc(OC)cc3)c3ccc(Cl)cc32)c(OC)c1` (stereo partly drawn) [Example 89, (S)-1-[5-Chloro-1-(4-methoxybenzenesulfonyl)-3-(2-methoxy-4-{[(2-methoxyethyl)-methylamino]methyl}phenyl)-2-oxo-2,3-dihydro-1H-indol-3-yl]pyrrolidine-2-dimethyl-carboxamide, trifluoroacetic acid salt], the Ki was under 1 nM. Next, `COc1ccc(S(=O)(=O)N2C(=O)C(c3ccc(CN(C)C)cc3OC)(N3CCC[C@H]3C(=O)N(C)C)c3ccccc32)cc1` (stereo partly drawn) [Example 90, (S)-1-[3-(4-Dimethylaminomethyl-2-methoxyphenyl)-1-(4-methoxybenzenesulfonyl)-2-oxo-2,3-dihydro-1H-indol-3-yl]pyrrolidine-2-dimethylcarboxamide, trifluoroacetic acid salt]: 10 to 100 nM; `COc1ccc(S(=O)(=O)N2C(=O)C(c3ccc(CN4CCCC4)cc3OC)(N3CCC[C@H]3C(=O)N(C)C)c3ccccc32)cc1` (stereo partly drawn) [Example 91, (S)-1-[1-(4-Methoxybenzenesulfonyl)-3-(2-methoxy-4-pyrrolidin-1-ylmethylphenyl)-2-oxo-2,3-dihydro-1H-indol-3-yl]pyrrolidine-2-dimethylcarboxamide, trifluoroacetic acid salt]: 1 to 10 nM; `COc1ccc(S(=O)(=O)N2C(=O)C(c3ccc(CN4CCN(C)CC4)cc3OC)(N3CCC[C@H]3C(=O)N(C)C)c3ccccc32)cc1` (stereo partly drawn) [Example 92, (S)-1-{1-(4-Methoxybenzenesulfonyl)-3-[2-methoxy-4-(4-methylpiperazin-1-yl-methyl)phenyl]-2-oxo-2,3-dihydro-1H-indol-3-yl}-pyrrolidine-2-carboxylic acid dimethylamide, trifluoroacetic acid salt]: 1 to 10 nM. On to `CCNCc1ccc(C2(N3CCC[C@H]3C(=O)N(C)C)C(=O)N(S(=O)(=O)c3ccc(OC)cc3)c3ccc(Cl)cc32)c(OC)c1` (stereo partly drawn) [Example 93, (S)-1-[5-Chloro-3-(4-ethylaminomethyl-2-methoxyphenyl)-1-(4-methoxybenzene-sulfonyl)-2-oxo-2,3-dihydro-1H-indol-3-yl]pyrrolidine-2-dimethylcarboxamide, trifluoroacetic acid salt], for which the Ki is under 1 nM. The compound `COc1ccc(S(=O)(=O)N2C(=O)C(c3ccc(CNC(C)C)cc3OC)(N3CCC[C@H]3C(=O)N(C)C)c3cc(Cl)ccc32)cc1` (stereo partly drawn) [Example 94, (S)-1-[5-Chloro-3-[4-(isopropylaminomethyl)-2-methoxyphenyl]-1-(4-methoxybenzene-sulfonyl)-2-oxo-2,3-dihydro-1H-indol-3-yl]pyrrolidine-2-dimethylcarboxamide, trifluoroacetic acid salt] showed a Ki of under 1 nM.

As for `COc1ccc(CN(C)C)cc1C1(N2CCC[C@H]2C(=O)N(C)C)C(=O)N(S(=O)(=O)c2ccc(C#N)cc2)c2ccc(Cl)cc21` (stereo partly drawn) [Example 95, (S)-1-[5-Chloro-1-(4-cyanobenzenesulfonyl)-3-(5-dimethylaminomethyl-2-methoxy-phenyl)-2-oxo-2,3-dihydro-1H-indol-3-yl]pyrrolidine-2-dimethylcarboxamide], the Ki was 1 to 10 nM. With `COc1ccc(CN2CCCC2)cc1C1(N2CCC[C@H]2C(=O)N(C)C)C(=O)N(S(=O)(=O)c2ccc(C#N)cc2)c2ccc(Cl)cc21` (stereo partly drawn) [Example 96, (S)-1-[5-Chloro-1-(4-cyanobenzenesulfonyl)-3-(2-methoxy-5-pyrrolidin-1-ylmethyl-phenyl)-2-oxo-2,3-dihydro-1H-indol-3-yl]pyrrolidine-2-dimethylcarboxamide] the figure was under 1 nM.

These data come from patent US8691815B2, “Substituted oxindole derivatives, drugs containing said derivatives and the use thereof” (AbbVie Deutschland GmbH & Co. KG, priority 2005, dated 2014).
